Test results from patent US9567586B2, “EpCAM aptamer for detection of cancer stem cells” (DEAKIN UNIVERSITY, priority 2012, dated 2017).

Key:
HT29 colon cancer cells = assay: Tumoursphere formation in 96-well, HT29; type: cell-based, human; conditions: 5 days; for Number of wells with sphere: HT29, 3 μM Dox equivalent
Experimental: Under non-adherent and serum-free conditions, only the cancer stem cells (CSCs) and progenitor cells survive and undergo self-renewal as well as proliferate to form tumour spheres. The inventor studied the ability of aptamer-Dox to target cancer stem cells by plating various cell doses of single-cell suspension of HT29 colon cancer cells in ultra-low attachment 96-wells in the presence of 3 μM of free Dox, 3 μM equivalent Dox conjugated with aptamer, 3 μM Dox-negative control aptamer or vehicle control for 5 days. Tumour spheres (with a size >50 μm) were enumerated.

MCF7/ADR cells = assay: Tumourigenicity ex vivo: treated MCF7/ADR cells xenotransplanted, extreme limiting dilution; type: in vivo, NOD/SCID mice; conditions: 20 nM chimera, 300 nM Dox, Day 40
Experimental: The inventor hypothesized that the CSC-targeted delivery of survivin siRNA would make CSC sensitive to Dox. Indeed, after treatment (without transfection reagent) with 20 nM chimera plus 300 nM Dox for 72 h, there was a ˜80% reduction in the number of mammospheres in both the first and second round of tumoursphere assays (not shown), indicating a significant portion of cancer stem cells had been eliminated. The inventor further confirmed the effect of the chimera plus Dox on cancer stem cells' tumourigenicity by xenotransplanting treated cells into the 4th inguinal mammary fat pads of NOD/SCID mice coupled with an extreme limiting dilution analysis to assess CSC frequency (at Day 40 alter implantation) (Table 6).

[1] = system: PLC/PRF/5 hepatocellular carcinoma cell line; assay: Tumoursphere formation in 96-well, PLC/PRF/5; type: cell-based, human
MCF-7/ADR tumours = assay: CSC marker status in in vivo treated MCF-7/ADR tumours (flow cytometry); set-up: species or system mice; conditions: treated 3 times in a week; 1 nmol PEG-chimera, 5 mg/kg doxorubicin; n=8
Experimental: A 20-kDa PEG was attached to the 5′-end of siRNA-aptamer-chimera in order to extend its systemic circulation time. […] Day 2 after the last (third) treatment, tumours were removed, its weight determined and the percentage of breast cancer stem cell marker (EpCAM^+/CD44^+/CD24^−) positive cells in the treatment groups and various control groups was studied via flow cytometray.
MCF-7/ADR tumours ([…]) were treated 3 times in a week with 1 nmol PEG-chimera+5 mg/kg doxorubicin. Single cell suspension was prepared for flow cytometry (n=8). Remarks

HT29 cell populations = assay: Extreme limiting dilution/xenotransplantation assay (ELDA) of treated HT29 tumours; type: in vivo, NOD/SCID mice; conditions: 9 weeks after inoculation
Excerpt: The inventor first studied whether the aptamer-Dox conjugate could efficiently target tumour in vivo via live animal imaging with an on-site IVIS Lumina II imaging station. […] The ability of aptamer-Dox to target CSC was further tested in vivo using the gold standard extreme limiting dilution/xenotransplantation assay (ELDA). To this end, the inventor injected 1×10^6 HT29 cells s.c. into NOD/SCID mice. When tumours reached a size of 3 mm, the mice were randomized and treated serially for 3 days at a daily dose of 5 mg/Kg of either free Dox, EpCAM aptamer-Dox or control aptamer-Dox via tail vein injection. Mice were sacrificed one week after the last treatment. […] The experiment as repeated and single cell suspensions prepared from the treated tumours (as in FIG. 14) and ELDA (Extreme limiting dilution analysis) performed to assess the effect on CSC frequency.

HT29 spheres = assay: FACS analysis of CSC markers in treated HT29 spheres; type: cell-based, human; conditions: HT29 spheres after treatment
Excerpt: Salinomycin (Sal), known to target CSC^23, was used as a positive control to validate our assays.

HT29 cells = assay: Tumour formation ex vivo: in vitro treated HT29 cells xenotransplanted; set-up: species or system NOD/SCID mice; conditions: cells treated 3 μM, 5 days, Day 50
Excerpt: As sphere formation is a surrogate assay for in vivo tumourigenicity, the inventor examined whether the in vitro treated cells could generate tumours upon xenotransplantation. […] As shown in FIG. 12 and Table 4, free Dox-treated cells formed tumours in every mouse studied but no tumour was detected in mice cells (Table 4) at Day 50 after receiving aptamer-Dox-treated tumour implantation.

MCF7/ADR tumour = assay: Xenotransplantation-LDA of in vivo treated MCF7/ADR tumours; conditions: 1 nmole chimera, 5 mg/kg Dox, Day 50
Experimental: An orthotopic breast cancer model was established by implanting 3×10^6 MCF7/ADR cells (mixed with Matrigel) per site in NOD-SCID mice. When tumours reached a volume of ˜200 mm^3, we started treatment via tail vein injection. The mice (n=5) were treated at Day 1, 3, 5, with i.v. (bolus) injection of 1 nmole of EpCAM aptamer-siRNA chimera; and Day 2, 4, 6, with i.v. (bolus) injection of 5 mg/kg doxorubicin. The animals were euthanized on Day 10 and tumours harvested and subjected to xenotransplantation and in vivo extreme limiting dilution analysis.

COc1cccc2c1C(=O)c1c(O)c3c(c(O)c1C2=O)C[C@@](O)(C(=O)CO)C[C@@H]3O[C@H]1C[C@H](N)[C@H](O)[C@H](C)O1 [Free Dox, doxorubicin]
effect on HT29 tumour sphere formation (in words) (HT29 colon cancer cells; 3 μM Dox): no effect
Number of wells with sphere (HT29 colon cancer cells; 1 cell seeded/well): 0/10
Number of wells with sphere (HT29 colon cancer cells; 10 cells seeded/well): 10/10
Number of wells with sphere (HT29 colon cancer cells; 100 cells seeded/well): 10/10
Number of wells with sphere (HT29 colon cancer cells; 200 cells seeded/well): 10/10
No. of tumours/no. of mice (MCF7/ADR cells; 0.5 × 10^6 cells injected): 0/5
No. of tumours/no. of mice (MCF7/ADR cells; 1 × 10^6 cells injected): 1/5
No. of tumours/no. of mice (MCF7/ADR cells; 3 × 10^6 cells injected): 3/5
No. of tumours/no. of mice (MCF7/ADR cells; 5 × 10^6 cells injected): 5/5
Number of wells with sphere ([1]; 1 cell seeded/well): 0/10
Number of wells with sphere ([1]; 10 cells seeded/well): 10/10
Number of wells with sphere ([1]; 100 cells seeded/well): 10/10
Number of wells with sphere ([1]; 200 cells seeded/well): 10/10
Percentage EpCAM+/CD44+/CD24− (MCF-7/ADR tumours): 11.6
No. tumour/No. mice (HT29 cell populations; 1 × 10^4 cells injected): 0/6
No. tumour/No. mice (HT29 cell populations; 1 × 10^5 cells injected): 6/6
No. tumour/No. mice (HT29 cell populations; 1 × 10^6 cells injected): 6/6
EpCAM^high/CD44^high/CD24^high cells (HT29 spheres): 91%
No. tumour/No. mice (HT29 cells; 1 × 10^5 cells injected): 5/5
No. tumour/No. mice (HT29 cells; 1 × 10^6 cells injected): 5/5
No. of tumours/no. of mice (MCF7/ADR tumour; 0.5 × 10^6 cells injected): 0/4
No. of tumours/no. of mice (MCF7/ADR tumour; 1 × 10^6 cells injected): 1/4
No. of tumours/no. of mice (MCF7/ADR tumour; 3 × 10^6 cells injected): 3/4
No. of tumours/no. of mice (MCF7/ADR tumour; 5 × 10^6 cells injected): 4/4
